# Results reported in patent US4399065A, “D-Phenylalanyl-L-prolyl-L-arginine aldehyde sulfate and process for the preparation thereof” (Patentbureau Danubia, priority 1981, dated 1983).
# “And” between values parts separate entries of the source, which are not always exact repeats. Equal values may be shown once.
# Columns and labels:
# [1] = molecular target: T1, U.S. Standard Human Thrombin (Homo sapiens, UniProt P00734); test: Antithrombin activity (thrombin time) of peptide solutions stored in isotonic salt solution, fibrinogen system; details: for Relative activity after 0 days: 10 mg/ml, 100 = fivefold relative thrombin time at 3.5 × 10^-7 M
# Method: In the course of our tests the peptides were dissolved in concentrations of 10 mg/ml, stored at 5° C., and the ensuing change in antithrombin activity registered for 180 days. The potency was assayed in a system containing the following components:
# 0.2 ml of 0.5 percent bovine fibrinogen in a 0.9 percent solution of sodium chloride,
# 0.1 ml of tris(hydroxymethyl)-amino-methane hydrochloride--hydrochloric acid buffer (pH 7.2) containing the peptide solution
# 0.1 ml of U.S. Standard Human Thrombin (NIH, Bethesda, Md., USA), 10 Unit/ml solution.
# The activity of the tripeptide aldehyde solution was arbitrarily set up as 100, if the reaction mixture induced a fivefold relative thrombin time at a final concentration of 3.5×10^-7 M (in the case of the tripeptide aldehyde sulfate at 0.175 μg/ml).
# [2] = system: thrombin time in the whole blood; test: In vivo trial, dog: dose required to prolong thrombin time in the whole blood 1.5 to 2.5 fold; details: thrombin time in whole blood prolonged 1.5 to 2.5 fold
# From the text: (§1) ^a The therapeutic effect is characterized by the dose required to […]
# [3] = Stability of peptide aldehyde salts/derivatives in aqueous solution and in solid form; assay type: physicochemical
# [4] = molecular target: T1, U.S. Standard Human Thrombin; test: Antithrombin activity (thrombin time) in human plasma; assay type: biochemical; parameters: U.S. Standard Human Thrombin; purchased NIH, Bethesda, Md., USA; details: for amount required for a twofold thrombin time increase relative to the tripeptide aldehyde sulfate: human plasma; for IC (2-fold thrombin time): pH 7.2, read-out: Amount of peptide required to increase thrombin time twofold immediately following dissolution of the peptide; for Relative activity: sulfate = 100
# Method: In order to simulate physiological conditions the antithrombin activity of the tripeptide aldehyde salts as well as that of the carbamic acid derivatives was tested also on human plasma in the following system:
# 0.2 ml of human citrate plasma,
# 0.1 ml of tris(hydroxymethyl)-amino-methane hydrochloride--hydrochloric acid buffer solution (pH 7.2) containing the peptide solution, and
# 0.1 ml of U.S. Standard Human Thrombin (NIH, Bethesda Md., USA), 10 Units/ml solution.
# [5] = system: thrombin time in the whole blood; test: In vivo trial, rabbit: dose required to prolong thrombin time in the whole blood 1.5 to 2.5 fold; details: thrombin time in whole blood prolonged 1.5 to 2.5 fold
# From the text: as §1
# [6] = cited from earlier work
# [7] = system: thrombin time in the whole blood; test: In vivo trial of the tripeptide aldehyde derivatives, summary statements; parameters: species or system rabbit, dog; details: for oral dose at which therapeutic effect may be achieved: species not given
# From the text: as §1
# Acute toxicity in mice = assay type: in vivo; details: mouse, in vivo
# mice = test: Acute toxicity in mice; assay type: in vivo; details: acute toxicity
# [8] = Acute toxicity at intravenous infusion in the rabbit; details: in vivo
# thrombin = details: known from Hungarian Pat. No. 169,870 / Belgian Pat. No. 880,844; cited from earlier work
# Solubility = assay type: physicochemical
# [9] = ip, mice, i.p., read-out: LD50 i.p.
# [10] = iv, mice, i.v. bolus, read-out: LD50 i.v. bolus
# [11] = po, mice, p.o., read-out: LD50 p.o.
Compound,"Dose required for therapeutic effect, p.o., dog [2] [mg/kg]",amount required for a twofold thrombin time increase relative to the tripeptide aldehyde sulfate [4],IC (2-fold thrombin time) [4] [µg/mL],"activity starting to decrease (in words) ([1]; isotonic salt solution, 5° C.)","Dose required for therapeutic effect, s.c., rabbit [5] [mg/kg]","Dose required for therapeutic effect, i.v. infusion, dog [2] [mg/kg/h]","Dose required for therapeutic effect, s.c., dog [2] [mg/kg]",Relative activity ([4]; human citrate plasma),"Dose required for therapeutic effect, p.o., rabbit [5] [mg/kg]",LD50 (Acute toxicity in mice; [11]) [mg/kg],also measured
"CC(=O)O.Cl.N=C(N)NCCC[C@@H](C=O)NC(=O)[C@@H]1CCCN1C(=O)[C@H](N)Cc1ccccc1 [D-Phe-Pro-Arg-H.2HCl, D-phenylalanyl-L-prolyl-L-arginine aldehyde acetate and hydrochloride]",100,manifold,0.06 to 0.13,–,–,–,–,–,–,–,"activity starting to decrease after ([1]; isotonic salt solution, 5° C.): > 5 days; antithrombin potency upon standing in aqueous solution [3]: varying and rapidly decreasing"
N=C(N)NCCC[C@@H](C=O)NC(=O)[C@@H]1CCCN1C(=O)[C@H](N)Cc1ccccc1 [citrate],–,–,–,already after several days,–,–,–,–,–,–,–
Heparin,–,–,–,–,5.0,0.5,2.0,19,–,–,"Dose required for therapeutic effect, i.v. infusion, rabbit [5]: 0.6 mg/kg/h; activity given orally ([6]; oral): practically inactive at oral application; time until effect may be registered (in words) ([6]; primarily i.v. infusion): rapidly, within a short period of time; Amount of peptide required to increase thrombin time twofold immediately following dissolution of the peptide ([4]; human citrate plasma, pH 7.2, amount in the reaction mixture): 0.105 µg/mL"
"N=C(N)NCCC[C@@H](C=O)NC(=O)[C@@H]1CCCN1C(=O)[C@H](N)Cc1ccccc1.O=S(=O)(O)O [D-Phe-Pro-Arg-H.H2 SO4, D-Phenylalanyl-L-prolyl-L-arginine aldehyde sulfate]",25,–,0.02,–,6.0,0.5,6.0,100,25,> 2000,"Relative activity after 0 days ([1]; isotonic salt solution, 5° C.): 100; retaining its antithrombin activity ([1]; isotonic salt solution, 5° C.): ≥ 90 days; IC (5-fold thrombin time) ([1]; pH 7.2, read-out: final concentration inducing a fivefold relative thrombin time (activity set up as 100)): 0.35 µM and 0.175 µg/mL; stable in aqueous medium ([1]; prolonged stability trials, aqueous medium): ≥ 180 days; failed to lose activity in solid form ([1]; solid form): ≥ 6 months; Dose required for therapeutic effect, i.v. infusion, rabbit [5]: 1.0 mg/kg/h; antithrombin potency in vivo ([7]; in vivo): significant antithrombin potency in vivo; efficacy at intravenous and subcutaneous application ([7]; intravenous and subcutaneous, compared with heparin): in the range of that of heparin; oral dose at which therapeutic effect may be achieved [7]: 25 mg/kg; LD50 (Acute toxicity in mice; [9]): 230 mg/kg; LD50 (Acute toxicity in mice; [10]): 45 mg/kg; LD50 (Acute toxicity in mice; po, oral administration, read-out: acute toxicity at oral administration): 2000 mg/kg; LD50 (Acute toxicity in mice; sc, mice, s.c., read-out: LD50 s.c.): 1800 mg/kg; toxicity data compared with the acetate and the carbamic acid derivative (mice): more favourable than those of either the acetate or the carbamic acid derivative; LD50 [8]: 58 mg/kg"
N=C(N)NCCC[C@@H](C=O)NC(=O)[C@@H]1CCCN1C(=O)[C@H](N)Cc1ccccc1 [tosylate],–,–,–,–,–,–,–,–,–,–,"change of antithrombin activity compared with the acetate ([1]; isotonic salt solution, Table 1 footnote d): changing similarly to that of the acetate"
"CC(=O)O.N=C(N)NCCC[C@@H](C=O)NC(=O)[C@@H]1CCCN1C(=O)[C@H](N)Cc1ccccc1 [D-Phe-Pro-Arg-H.2 CH3 COOH, D-phenylalanyl-L-prolyl-L-arginine aldehyde acetate]",100,manifold,0.065 to 0.14,already after several days,–,–,–,–,100,960,LD50 (Acute toxicity in mice; [9]): 38 mg/kg; LD50 (Acute toxicity in mice; [10]): 9 mg/kg; antithrombin potency upon standing in aqueous solution [3]: varying and rapidly decreasing; thrombin inhibition (thrombin): potent thrombin inhibitors
"N=C(NCCC[C@@H](C=O)NC(=O)[C@@H]1CCCN1C(=O)[C@H](N)Cc1ccccc1)NC(=O)O [D-Phe-Pro-Arg/COOH/-H, D-phenylalanyl-L-prolyl-N^G -carboxy-L-arginine aldehyde]",50,twofold,0.042,already after several days,10.0,3.0,6.0,45,50,1200,"Relative activity after 0 days ([1]; isotonic salt solution, 5° C.): 100; oral dose at which therapeutic effect may be achieved [7]: 50 mg/kg; potency after several days ([3]; aqueous buffer solution, after several days): significant reduction in potency; activity after several months in solid form ([3]; solid form, after several months): loss of original activity even in solid form; solubility (Solubility): poor solubility; thrombin inhibition (thrombin): potent thrombin inhibitors"
